In ChEMBL document CHEMBL1201862, “PubChem BioAssay data set” (2004):
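Grown in 96-well plates, cells were treated for 48 hours with each compound at five concentrations. Insufficient inhibition: endpoint recorded as highest concentration tested. GI50: concentration for 50% inhibition of growth.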 Activity calls are given as the source filed them. No stated cut-off is given here; in the data, active = GI50 up to about 1.1 µM and inactive = higher.

Tests used:
Assay in all cases: NCI anticancer screen, dose series, 48 h
OVCAR-3 = tested on: OVCAR-3
RPMI-8226 = tested on: RPMI-8226
OVCAR-8 = tested on: OVCAR-8
TK-10 = tested on: TK-10
UACC-62 = tested on: UACC-62
CAKI-1 = tested on: CAKI-1
SK-MEL-28 = tested on: SK-MEL-28
MDA-N = tested on: MDA-N
SW-620 = tested on: SW-620
SF-295 = tested on: SF-295
786-0 = tested on: 786-0
M14 = tested on: M14
HOP-62 = tested on: HOP-62
A498 = tested on: A498
KM12 = tested on: KM12
HT-29 = tested on: HT-29
HL-60 = tested on: HL-60

| SMILES | GI50 (OVCAR-3) | GI50 (RPMI-8226) | GI50 (OVCAR-8) | GI50 (TK-10) | GI50 (UACC-62) | GI50 (CAKI-1) | GI50 (SK-MEL-28) | GI50 (MDA-N) | GI50 (SW-620) | GI50 (SF-295) | GI50 (786-0) | GI50 (M14) | GI50 (HOP-62) | GI50 (A498) | GI50 (KM12) | GI50 (HT-29) | GI50 (HL-60) |
| --- | --- | --- | --- | --- | --- | --- | --- | --- | --- | --- | --- | --- | --- | --- | --- | --- | --- |
| NCCSCCc1ccccc1 | 68.2 µM (inactive) | 44 µM (inactive) | > 100 µM (inactive) | > 100 µM (inactive) | > 100 µM (inactive) | > 100 µM (inactive) | > 100 µM (inactive) | > 100 µM (inactive) | > 100 µM (inactive) | > 100 µM (inactive) | > 100 µM (inactive) | > 100 µM (inactive) | > 100 µM (inactive) | > 100 µM (inactive) | > 100 µM (inactive) | > 100 µM (inactive) |  |
| O=[N+]([O-])c1ccc2[nH]c(-c3ccc(Cl)cc3)nc2c1 | 30.8 µM (inactive) | 23.2 µM (inactive) | 30.1 µM (inactive) | 32.6 µM (inactive) | 21.2 µM (inactive) | 31.1 µM (inactive) | 39 µM (inactive) | 24 µM (inactive) | 32.7 µM (inactive) | 20.3 µM (inactive) | 33 µM (inactive) | 19.1 µM (inactive) | 21.5 µM (inactive) |  |  | 18.5 µM (inactive) |  |
| CN(C)CCCNc1ncnc2[nH]cnc12 | > 100 µM (inactive) | > 100 µM (inactive) | > 100 µM (inactive) | > 100 µM (inactive) | > 100 µM (inactive) | > 100 µM (inactive) | > 100 µM (inactive) | > 100 µM (inactive) | > 100 µM (inactive) | > 100 µM (inactive) | > 100 µM (inactive) | > 100 µM (inactive) | > 100 µM (inactive) | > 100 µM (inactive) | > 100 µM (inactive) | > 100 µM (inactive) |  |
| Sc1ncc2[nH]nnc2n1 | > 100 µM (inactive) | > 100 µM (inactive) | > 100 µM (inactive) | > 100 µM (inactive) |  | > 100 µM (inactive) | > 100 µM (inactive) |  | > 100 µM (inactive) | > 100 µM (inactive) | > 100 µM (inactive) |  | > 100 µM (inactive) | > 100 µM (inactive) | > 100 µM (inactive) | > 100 µM (inactive) | > 100 µM (inactive) |
| CC(C)=CC(=O)c1[nH]c2ccccc2c1CC(=O)NCCc1c[nH]cn1 | > 100 µM (inactive) |  | > 100 µM (inactive) | > 100 µM (inactive) | > 100 µM (inactive) | > 100 µM (inactive) | > 100 µM (inactive) | > 100 µM (inactive) | > 100 µM (inactive) | > 100 µM (inactive) | > 100 µM (inactive) | > 100 µM (inactive) |  | > 100 µM (inactive) | > 100 µM (inactive) | > 100 µM (inactive) | > 100 µM (inactive) |
| C[C@H]1[C@H](C)N(Cc2ccccc2)P(=O)(C(O)/C=C/c2ccccc2)N1Cc1ccccc1 (stereo partly specified) |  | 6.22 µM (inactive) | 8.53 µM (inactive) | 7.01 µM (inactive) | 4.18 µM (inactive) | 8.28 µM (inactive) | 8.51 µM (inactive) | 5.55 µM (inactive) | 9.25 µM (inactive) | 6.95 µM (inactive) | 5.32 µM (inactive) | 4.62 µM (inactive) | 8.41 µM (inactive) | 5.45 µM (inactive) | 8.91 µM (inactive) | 5.24 µM (inactive) |  |
| COC(=O)c1ccccc1C1CN=NC12Cc1c(ccc3c1CCC3)C2=O (stereo unspecified) | 96.2 µM (inactive) | 28.8 µM (inactive) | 92.5 µM (inactive) | > 100 µM (inactive) | 55.1 µM (inactive) | > 100 µM (inactive) | 95.1 µM (inactive) | 20.1 µM (inactive) | 65.3 µM (inactive) | 47.3 µM (inactive) | > 100 µM (inactive) | 46.5 µM (inactive) | > 100 µM (inactive) |  | 38.4 µM (inactive) | 43.5 µM (inactive) | 23.4 µM (inactive) |
| COc1ccc(CCCCNCc2cccc(CNCCCCc3ccc(OC)cc3)c2)cc1 | 1.88 µM (inactive) | 2.67 µM (inactive) | 1.8 µM (inactive) | 2.07 µM (inactive) | 1.85 µM (inactive) | 1.8 µM (inactive) | 1.84 µM (inactive) | 2 µM (inactive) | 2.23 µM (inactive) | 1.93 µM (inactive) | 2.1 µM (inactive) | 1.69 µM (inactive) | 2.19 µM (inactive) |  | 1.77 µM (inactive) | 1.82 µM (inactive) | 1.77 µM (inactive) |
| CC(=O)OCC1OC(n2ncc(=O)[nH]c2=O)C(OC(C)=O)C1OC(C)=O (stereo unspecified) | 65.9 µM (inactive) | > 100 µM (inactive) | 14.7 µM (inactive) | > 100 µM (inactive) | 23.2 µM (inactive) | 9.4 µM (inactive) | > 100 µM (inactive) | 32.3 µM (inactive) | 1.4 µM (inactive) | 5.27 µM (inactive) | 4.04 µM (inactive) | 73.5 µM (inactive) | 21.7 µM (inactive) |  | 11.3 µM (inactive) | 6.67 µM (inactive) |  |
| COC(=O)C1=C(C(=O)OC)C(OO)(c2ccccc2)OC1=O (stereo unspecified) | > 100 µM (inactive) |  | > 100 µM (inactive) | > 100 µM (inactive) | 34.2 µM (inactive) | > 100 µM (inactive) | > 100 µM (inactive) | 91.4 µM (inactive) | > 100 µM (inactive) | > 100 µM (inactive) | 36.5 µM (inactive) | > 100 µM (inactive) |  |  | > 100 µM (inactive) | 35.9 µM (inactive) | > 100 µM (inactive) |
| O=C1NC(N2CCCC(CO)C2)=N/C1=C\c1cccs1 (stereo unspecified) | > 100 µM (inactive) | > 100 µM (inactive) | > 100 µM (inactive) | > 100 µM (inactive) | > 100 µM (inactive) | > 100 µM (inactive) | > 100 µM (inactive) | > 100 µM (inactive) | > 100 µM (inactive) | > 100 µM (inactive) | > 100 µM (inactive) | > 100 µM (inactive) | > 100 µM (inactive) |  | > 100 µM (inactive) | > 100 µM (inactive) | > 100 µM (inactive) |
| Cn1c(=O)n2n(c1=O)C([S+]([O-])c1ccccc1)C2 (stereo unspecified) | > 100 µM (inactive) | > 100 µM (inactive) | > 100 µM (inactive) | > 100 µM (inactive) | > 100 µM (inactive) | > 100 µM (inactive) | > 100 µM (inactive) | > 100 µM (inactive) | > 100 µM (inactive) | > 100 µM (inactive) | > 100 µM (inactive) | > 100 µM (inactive) | > 100 µM (inactive) |  | 42.8 µM (inactive) | > 100 µM (inactive) |  |
| CCOC(=O)c1c(N2CCCC2)[nH]c(=O)c(C(c2ccc(N(C)C)cc2)c2c(O)c(C(=O)OCC)c(N3CCCC3)[nH]c2=O)c1O | > 100 µM (inactive) | > 100 µM (inactive) | > 100 µM (inactive) | 94.2 µM (inactive) | > 100 µM (inactive) | > 100 µM (inactive) | > 100 µM (inactive) | > 100 µM (inactive) | > 100 µM (inactive) | > 100 µM (inactive) | > 100 µM (inactive) | > 100 µM (inactive) | > 100 µM (inactive) | > 100 µM (inactive) | > 100 µM (inactive) | > 100 µM (inactive) |  |
| OCC1C(OCc2ccccc2)C(OCc2ccccc2)C(OCc2ccccc2)CN1Cc1ccccc1 (stereo unspecified) | 47.5 µM (inactive) |  | 29.9 µM (inactive) | 42.8 µM (inactive) | > 100 µM (inactive) | > 100 µM (inactive) | 88.9 µM (inactive) | 35.4 µM (inactive) | 53 µM (inactive) | 30.3 µM (inactive) | 26.3 µM (inactive) | 37.2 µM (inactive) | 33 µM (inactive) |  | 16.8 µM (inactive) | 9.62 µM (inactive) |  |
| NC(=O)c1cn(C2OC(CO)C(O)C2O)c2nc[n+]([O-])c(N)c12 (stereo unspecified) | 0.125 µM (active) | 0.266 µM (active) | 0.094 µM (active) | 0.0324 µM (active) | 0.12 µM (active) | 0.0497 µM (active) | 0.341 µM (active) |  | 0.0409 µM (active) | 0.262 µM (active) | 0.126 µM (active) | 0.111 µM (active) | 0.133 µM (active) |  | 0.153 µM (active) | 0.143 µM (active) |  |
| O=c1[nH]cnc2c(C3OC(CO)C(O)C3O)c[nH]c12 (stereo unspecified) | > 100 µM (inactive) | > 100 µM (inactive) | > 100 µM (inactive) | > 100 µM (inactive) | > 100 µM (inactive) | > 100 µM (inactive) | > 100 µM (inactive) | > 100 µM (inactive) | > 100 µM (inactive) | > 100 µM (inactive) | > 100 µM (inactive) | > 100 µM (inactive) | > 100 µM (inactive) |  | > 100 µM (inactive) | > 100 µM (inactive) | > 100 µM (inactive) |
| CCc1cccc2c3c([nH]c12)-c1ccccc1NC(=O)C3 | > 100 µM (inactive) | 67.5 µM (inactive) | > 100 µM (inactive) | > 100 µM (inactive) | 65.9 µM (inactive) | 43.6 µM (inactive) | > 100 µM (inactive) |  | > 100 µM (inactive) | > 100 µM (inactive) | > 100 µM (inactive) | > 100 µM (inactive) | > 100 µM (inactive) | 19.5 µM (inactive) | 7.06 µM (inactive) | > 100 µM (inactive) | 92.3 µM (inactive) |
| Cc1ccc2c(O)cc(-c3ccc4ccccc4c3)nc2n1 |  | 4.48 µM (inactive) | 5.82 µM (inactive) | 8.45 µM (inactive) | 3.64 µM (inactive) |  | 5.9 µM (inactive) |  | 2.8 µM (inactive) |  | 3.94 µM (inactive) | 8.89 µM (inactive) | 7.13 µM (inactive) | 3.4 µM (inactive) | 3.21 µM (inactive) | 3.75 µM (inactive) | 1.82 µM (inactive) |
